Assay results published in US10555987B2, “GHRH agonists for the treatment of ischemic disorders” (UNIVERSITY OF MIAMI, priority 2012, dated 2020).
“Also recorded” adds a separate entry of the source. Non-standard residues stand in square brackets, D forms with d. Residues, ends and D or L forms follow the SMILES beside them. *: point of attachment. Phe(F5) = N[C@@H](Cc1c(F)c(F)c(F)c(F)c1F)C(=O)O; Desaminotyrosyl = O=C(CCc1ccc(O)cc1)*; NMeY = CN[C@@H](Cc1ccc(O)cc1)C(=O)O; Agmatine = N=C(N)NCCCCN*; Nle = CCCC[C@H](N)C(=O)O; Orn = NCCC[C@H](N)C(=O)O; Abu = CC[C@H](N)C(=O)O; GABA = NCCCC(=O)O

Experiments:
[1] = test system: myocardial infarction (Fisher-344 rats); experiment: Morphometric analysis of infarct size, rat MI model (Example 13); format: in vivo; conditions: 50 μg/kg s.c. twice daily for 4 weeks; mean ± SEM
Protocol: (§1) Myocardial infarction (MI) was induced by permanent ligation of the left coronary artery in female 6-month-old Fisher-344 rats. Animals were randomly assigned to receive placebo (DMSO+propylene glycol) or one of the GHRH-agonists (JI-38, MR-356/P-20356, MR-409/P-27409, all 50 μg/kg), starting 4 weeks post-MI. All treatment was given subcutaneously twice daily for 4 weeks.
Rat hearts were processed using routine histological procedures. Samples were fixed in formalin.
(§2) Paraffin sections were deparaffinized and rehydrated by immersion in xylene followed by a graded series of ethanol. Antigen retrieval was performed by a heat-induced method with citrate buffer (Dako, Carpinteria, Calif.). After blocking with 10% normal donkey serum, sections were incubated with a primary antibody at 37° C. for 1 hour, followed by application of secondary antibody. Omission of the primary antibodies on parallel sections was used as negative control. Nuclei were counterstained with DAPI (Invitrogen, Carlsbad, Calif.). The total numbers of positively-stained cells (c-kit, CD45, phospho-histone H3 [pH3]) were quantified per slide to calculate the number of cells per section on each sample. Morphometric analysis was performed using Adobe Photoshop CS3 (San Jose, Calif.).

[2] = test system: myocardial infarction (Fischer 344 rats); experiment: Morphometric analysis, percentage of infarcted myocardium (Example 14); format: in vivo, rat; conditions: vs. placebo, FIG. 8; listed as MR-409
Protocol: (§3) MI was induced in female 6-month-old Fischer 344 rats by permanent ligation of left ventricular (LV) anterior descending coronary artery. Animals were randomly assigned to receive placebo or one of the following GHRH agonists (MR-356, MR-361, MR-367, MR-403, MR-404, MR-409 and MR-502) starting 2 hours post-surgery. All treatment (50 μg/kg) was given subcutaneously twice daily for 4 weeks. The Institutional Animal Care and Use committee of the University of Miami approved all protocols and experimental procedures.
Slides were prepared with H&E and Masson's trichrome stain to assess cardiac structure and the presence and extent of myocardial scar, respectively. The percentage of infarcted myocardium was calculated.

[3] = test system: myocardial infarction (Fisher-344 rats); experiment: Immunostaining of heart tissue (pH3, c-kit, arterioles), rat MI model (Example 13); format: in vivo
Protocol: as §1, §2
Heart sections were co-stained with isolectin (endothelial cell marker) and vascular smooth muscle (SMA22a) to identify arterioles which play a crucial role in cardiac repair. […] An inverse correlation between number of arterioles and infarct size was observed (FIG. 5C).

[4] = test system: myocardial infarction (Fisher-344 rats); experiment: Echocardiography in rat myocardial infarction model, treatment from 4 weeks post-MI (Example 13); format: in vivo; conditions: mean ± SEM
Protocol: as §1
Echocardiographic measurements were obtained at baseline, 2 days, 1, 2 and 4 weeks. Echocardiographic assessments were performed in anesthetized rats (2% isoflurane inhalation) using a Vevo-770 echocardiogram (Visual Sonics Inc., Toronto, Ontario, Canada) equipped with a 17.5-MHz transducer. Cardiac dimensions: LV end diastolic (LVEDD), end systolic (LVESD) diameters and fractional shortening (FS) were recorded from M-mode images using averaged measurements from 3 to 5 consecutive cardiac cycles according to the American Society of Echocardiography. Ejection fraction (EF) was calculated from bi-dimensional long-axis parasternal views taken through the infarcted area. All images were analyzed using Vevo 770 3.0.0 software (Visual Sonics Inc., Toronto, Ontario, Canada).

[5] = test system: GH release; experiment: GH releasing potency in vivo, intravenous administration (Example 14, Table 13); set-up: species or system rat; conditions: i.v.; for Serum GH level at selected time after injection (ng/ml), 0 min / Serum GH level at selected time after injection (ng/ml), 5 min / Serum GH level at selected time after injection (ng/ml), 15 min: dose 1 μg/kg, mean ± SEM
Protocol: Male Sprague-Dawley rats, weighing 200-250 g, were purchased from Charles River Laboratory (Wilmington, Mass.) and used for experiments. All animal procedures were approved by the Veterans Affairs Animal Care and Use Committee and were conducted in accordance with additional institutional guidelines as well. Briefly, groups of 5-6 animals were used in each experiment. The rats were anesthetized with 50 mg/kg of sodium pentobarbital (Nembutal, Lundbeck Inc., Deerfield, Ill.). Twenty min after inducing anesthesia, GHRH(1-29)NH2, JI-38, or new analogs were injected into the animals intravenously (i.v.) or subcutaneously (s.c.). The peptides were dissolved in 0.01 M acetic acid to get 1 μg/μl stock solution, and then diluted with 5% mannitol. Control rats received 5% mannitol only. Blood samples were collected from the jugular vein at selected times and were used for serum preparation. Concentrations of GH in rat sera were determined by ELISA. The relative potencies of tested peptides were calculated using GHRH(1-29)NH2 and JI-38 for comparison, whose potency was defined as 1. The equivalent dosage of GHRH(1-29)NH2 to reach the same level of serum growth hormone release after injection of the specific tested peptide was determined from a GHRH(1-29)NH2 standard curve using Origin 6.0 software. […] Serum GH was determined using the rat Growth Hormone ELISA kit (ALPCO Diagnostics, Mill Valley, Calif.) according to the manufacturer's instruction. Absorbance at 405 nm was measured by a Victor 3 Multi-label Counter (Perkin-Elmer, Waltham, Md.).

[6] = test system: myocardial infarction (Fischer 344 rats); experiment: Echocardiography in rat MI model, treatment from 2 hours post-surgery (Example 14); format: in vivo; conditions: echocardiographic measurements at day 2 post-MI
Protocol: as §3
Longitudinal evaluation of LV remodeling was obtained by echocardiographic measurements between baseline and 4 weeks following MI. Echocardiographic assessments were performed in anesthetized rats (1-2% isoflurane inhalation) using a Vevo-770 echocardiogram (Visual Sonics Inc., Toronto, Ontario, Canada) equipped with 25 MHz transducer. Cardiac dimensions were recorded from M-mode images using averaged measurements from 3 to 5 consecutive cardiac cycles. LV end-diastolic and end-systolic volumes and ejection fraction (EF) were calculated from bi-dimensional long-axis parasternal views taken through the infarcted area. All images were analyzed using Vevo 770 3.0.0 software (Visual Sonics).

[7] = 50 μg/kg s.c. twice daily for 4 weeks, mean ± SEM

## CCCC[C@H](NC(=O)[C@@H](NC(=O)[C@H](CC(=O)O)NC(=O)[C@H](CCC(N)=O)NC(=O)[C@H](CC(C)C)NC(=O)[C@H](CC(C)C)NC(=O)[C@H](CCCN)NC(=O)[C@H](CCCNC(=N)N)NC(=O)[C@H](C)NC(=O)[C@H](CO)NC(=O)[C@H](CC(C)C)NC(=O)[C@H](CCC(N)=O)NC(=O)[C@H](CC)NC(=O)[C@H](CC(C)C)NC(=O)[C@@H](NC(=O)[C@H](CCCN)NC(=O)[C@H](CCCNC(=N)N)NC(=O)[C@H](Cc1ccc(O)cc1)NC(=O)[C@H](CO)NC(=O)[C@H](CC(N)=O)NC(=O)[C@@H](NC(=O)[C@H](Cc1ccccc1)NC(=O)[C@@H](NC(=O)[C@H](C)NC(=O)[C@H](CC(=O)O)NC(=O)[C@@H](C)NC(=O)[C@H](Cc1ccc(O)cc1)NC)[C@@H](C)CC)[C@@H](C)O)C(C)C)[C@@H](C)CC)C(=O)N[C@@H](CC(=O)O)C(=O)N[C@@H](CCCNC(=N)N)C(=O)NC [Peptide P-27409, [N—Me-Tyr^1, D-Ala^2, Orn^12, Abu^15, Orn^21, Nle^27, Asp^28]hGHRH(1-29)NH—CH3] (H-[NMeY][dA]DAIFTNSYR[Orn]VL[Abu]QLSAR[Orn]LLQDI[Nle]DR-NHMe)
[1]
  MI size (%): 42 ± 1.9 %
[2]
  infarct size (MI %): significantly attenuated; also recorded: substantial reductions
[3]; [7]
  c-kit (positive cells in the heart): 68 ± 5.5
  phospho H3 (positive cells in the heart): 47 ± 5.8
[3]; isolectin / SMA22a co-staining of heart sections
  number of arterioles: significantly increased
[4]; 50 μg/kg s.c. twice daily for 4 weeks
  EF (4 Weeks): 48 ± 2.8 %
[4]; ejection fraction at baseline
  EF (Baseline): 90 ± 0.8%

## CCCC[C@H](NC(=O)[C@@H](NC(=O)[C@H](CC(=O)O)NC(=O)[C@H](CCC(N)=O)NC(=O)[C@H](CC(C)C)NC(=O)[C@H](CC(C)C)NC(=O)[C@H](CCCN)NC(=O)[C@H](CCCNC(=N)N)NC(=O)[C@H](C)NC(=O)[C@H](CO)NC(=O)[C@H](CC(C)C)NC(=O)[C@H](CCC(N)=O)NC(=O)[C@H](CC)NC(=O)[C@H](CC(C)C)NC(=O)[C@@H](NC(=O)[C@H](CCCN)NC(=O)[C@H](CCCNC(=N)N)NC(=O)[C@H](Cc1ccc(O)cc1)NC(=O)[C@H](CO)NC(=O)[C@H](CCC(N)=O)NC(=O)[C@@H](NC(=O)[C@H](Cc1ccccc1)NC(=O)[C@@H](NC(=O)[C@H](C)NC(=O)[C@H](CC(=O)O)NC(=O)[C@@H](C)NC(=O)[C@H](Cc1ccc(O)cc1)NC)[C@@H](C)CC)[C@@H](C)O)C(C)C)[C@@H](C)CC)C(=O)N[C@@H](CC(=O)O)C(=O)N[C@@H](CCCNC(=N)N)C(=O)NC [Peptide P-27403, [N—Me-Tyr^1, D-Ala^2, Gln^8, Orn^12, Abu^15, Orn^21, Nle^27, Asp^28]hGHRH(1-29)NH—CH3] (H-[NMeY][dA]DAIFTQSYR[Orn]VL[Abu]QLSAR[Orn]LLQDI[Nle]DR-NHMe)
[5]; 5 min, JI-38 = 1
  Relative potency, 5 min: 1.19
[5]; 15 min, JI-38 = 1
  Relative potency, 15 min: 1.35
[5]
  Serum GH level at selected time after injection (ng/ml), 0 min: 47.7 ± 4.1 ng/mL
[5]; 5 min
  Serum GH level at selected time after injection (ng/ml), 5 min: 642 ± 29.7 ng/mL
[5]; 15 min
  Serum GH level at selected time after injection (ng/ml), 15 min: 268 ± 21.1 ng/mL

## CCCC[C@H](NC(=O)[C@@H](NC(=O)[C@H](CC(=O)O)NC(=O)[C@H](CCC(N)=O)NC(=O)[C@H](CC(C)C)NC(=O)[C@H](CC(C)C)NC(=O)[C@H](CCCN)NC(=O)[C@H](CCCNC(=N)N)NC(=O)[C@H](C)NC(=O)[C@H](CO)NC(=O)[C@H](CC(C)C)NC(=O)[C@H](CCC(N)=O)NC(=O)[C@H](CC)NC(=O)[C@H](CC(C)C)NC(=O)[C@@H](NC(=O)[C@H](CCCN)NC(=O)[C@H](CCCNC(=N)N)NC(=O)[C@H](Cc1ccc(O)cc1)NC(=O)[C@H](CO)NC(=O)[C@H](CCC(N)=O)NC(=O)[C@@H](NC(=O)[C@H](Cc1ccccc1)NC(=O)[C@@H](NC(=O)[C@H](C)NC(=O)[C@H](CC(=O)O)NC(=O)[C@@H](C)NC(=O)[C@H](Cc1ccc(O)cc1)NC)[C@@H](C)CC)[C@@H](C)O)C(C)C)[C@@H](C)CC)C(=O)N[C@@H](CC(=O)O)C(=O)NCCCCNC(=N)N [Peptide P-20361, [N—Me-Tyr^1, D-Ala^2, Gln^8, Orn^12, Abu^15, Orn^21, Nle^27, Asp^28, Agm^29] hGHRH (1-29)NH2] (H-[NMeY][dA]DAIFTQSYR[Orn]VL[Abu]QLSAR[Orn]LLQDI[Nle]D-Agmatine)
[6]
  EF at day 2 post-MI: slightly better preserved

## CCCC[C@H](NC(=O)[C@@H](NC(=O)[C@H](CC(=O)O)NC(=O)[C@H](CCC(N)=O)NC(=O)[C@H](CC(C)C)NC(=O)[C@H](CC(C)C)NC(=O)[C@H](CCCN)NC(=O)[C@H](CCCNC(=N)N)NC(=O)[C@H](C)NC(=O)[C@H](CO)NC(=O)[C@H](CC(C)C)NC(=O)[C@H](CCC(N)=O)NC(=O)[C@H](CC)NC(=O)[C@H](CC(C)C)NC(=O)[C@@H](NC(=O)[C@H](CCCN)NC(=O)[C@H](CCCNC(=N)N)NC(=O)[C@H](Cc1ccc(O)cc1)NC(=O)[C@H](CO)NC(=O)[C@H](CC(N)=O)NC(=O)[C@@H](NC(=O)[C@H](Cc1c(F)c(F)c(F)c(F)c1F)NC(=O)[C@@H](NC(=O)[C@H](C)NC(=O)[C@H](CC(=O)O)NC(=O)[C@@H](C)NC(=O)CCc1ccc(O)cc1)[C@@H](C)CC)[C@@H](C)O)C(C)C)[C@@H](C)CC)C(=O)N[C@@H](CO)C(=O)N[C@@H](CCCNC(=N)N)C(=O)NCCCC(N)=O [Peptide P-25502, [Dat^1, D-Ala^2, Fpa5^6, Orn^12, Abu^15, Orn^21, Nle^27, Gab^30]hGHRH(1-30)NH2] (Desaminotyrosyl-[dA]DAI[Phe(F5)]TNSYR[Orn]VL[Abu]QLSAR[Orn]LLQDI[Nle]SR[GABA]-NH2)
[5]
  GH-releasing potency after intravenous administration (in words): highest potency for GH release
  Serum GH level at selected time after injection (ng/ml), 0 min: 59.9 ± 15.9 ng/mL
[5]; 5 min
  Serum GH level at selected time after injection (ng/ml), 5 min: 1253 ± 185 ng/mL
[5]; 15 min
  Serum GH level at selected time after injection (ng/ml), 15 min: 575 ± 20.9 ng/mL
